# Reference: patent US10183015B2, “Heterocyclic compounds and methods of use” (Medivation Technologies LLC, priority 2015, dated 2019)
# Test system: HepG2 cells
# Assay: HepG2 cell viability under serum-free conditions (MTS)
# Type: cell-based
# Settings: Homo sapiens, HepG2, 72 h; 5 μM, 3 days, DMEM without FBS; read-out: Average Viability (% Inhibition, n = 3)
# Protocol: Cancer cells such as HepG2 cells depend on SREBP activation and de novo lipogenesis to survive, particularly in low serum or serum-free conditions. Using this model, compounds were screened over 24 hours for the ability to block cleavage of SREBP to its active form and over 72 hours for an effect on cell viability under serum-free conditions.
# For viability measurements, HepG2 cells were seeded at 5,000 cells per well in 96-well plates in DMEM supplemented with 10% FBS. After 1 day in culture, cells were treated with compounds (20 μM & 5 μM) for 3 days in DMEM without FBS. Viability was measured by MTS […]. […]
row,Compound,cytotoxicity at 5 µM [%]
1,"O=S(=O)(Nc1ccc(-c2csc(-c3cccc4[nH]ccc34)n2)c(Cl)c1)C(F)(F)F [Compound 80, N-{3-chloro-4-[2-(1H-indol-4-yl)-1,3-thiazol-4-yl]phenyl}-1,1,1-trifluoromethanesulfonamide]",86
2,"O=S(=O)(Nc1ccc(-c2csc(-c3cccc(N4CCCCC4)c3)n2)c(Cl)c1)C(F)(F)F [Compound 88, N-(3-chloro-4-{2-[3-(piperidin-1-yl)phenyl]-1,3-thiazol-4-yl}phenyl)-1,1,1-trifluoromethanesulfonamide]",19
3,"O=S(=O)(Nc1ccc(-c2csc(-c3ccnc(Cl)c3)n2)c(Cl)c1)C(F)(F)F [Compound 95, N-(3-chloro-4-(2-(2-chloropyridin-4-yl)thiazol-4-yl)phenyl)-1,1,1-trifluoromethanesulfonamide]",86
4,"O=S(=O)(Nc1ccc(-c2csc(-c3ccnc(CC4CCCCC4)c3)n2)c(Cl)c1)C(F)(F)F [Compound 70, N-(3-chloro-4-{2-[2-(cyclohexylmethyl)pyridin-4-yl]-1,3-thiazol-4-yl}phenyl)-1,1,1-trifluoromethanesulfonamide]",100
5,"O=S(=O)(Nc1ccc(-c2csc(-c3ccnc4[nH]ccc34)n2)c(Cl)c1)C(F)(F)F [Compound 87, N-[3-chloro-4-(2-{1H-pyrrolo[2,3-b]pyridin-4-yl}-1,3-thiazol-4-yl)phenyl]-1,1,1-trifluoromethanesulfonamide]",9
6,"O=S(=O)(Nc1ccc(-c2csc(-c3ccccc3-c3ccccc3)n2)c(Cl)c1)C(F)(F)F [Compound 74, N-{3-chloro-4-[2-(2-phenylphenyl)-1,3-thiazol-4-yl]phenyl}-1,1,1-trifluoromethanesulfonamide]",97
7,"O=S(=O)(Nc1ccc(-c2csc(-c3ccc4cc[nH]c4c3)n2)c(Cl)c1)C(F)(F)F [Compound 72, N-{3-chloro-4-[2-(1H-indol-6-yl)-1,3-thiazol-4-yl]phenyl}-1,1,1-trifluoromethanesulfonamide]",94
8,"O=S(=O)(Nc1ccc(-c2csc(-c3csc4ccccc34)n2)c(Cl)c1)C(F)(F)F [Compound 90, N-{4-[2-(1-benzothiophen-3-yl)-1,3-thiazol-4-yl]-3-chlorophenyl}-1,1,1-trifluoromethanesulfonamide]",99
9,"Cc1noc(C)c1-c1nc(-c2ccc(NS(=O)(=O)C(F)(F)F)cc2Cl)cs1 [Compound 77, N-{3-chloro-4-[2-(dimethyl-1,2-oxazol-4-yl)-1,3-thiazol-4-yl]phenyl}-1,1,1-trifluoromethanesulfonamide]",41
10,"Cc1ccc(S(=O)(=O)Nc2cccc(-c3nc(-c4ccc(NS(=O)(=O)C(F)(F)F)cc4Cl)cs3)c2)cc1 [Compound 78, N-{3-[4-(2-chloro-4-trifluoromethanesulfonamidophenyl)-1,3-thiazol-2-yl]phenyl}-4-methylbenzene-1-sulfonamide]",87
11,"O=S(=O)(Nc1ccc(-c2csc(-c3c[nH]c4ccccc34)n2)c(Cl)c1)C(F)(F)F [Compound 93, N-{3-chloro-4-[2-(1H-indol-3-yl)-1,3-thiazol-4-yl]phenyl}-1,1,1-trifluoromethanesulfonamide]",82
12,"O=S(=O)(Nc1ccc(-c2csc(-c3cccc(CO)c3)n2)c(Cl)c1)C(F)(F)F [Compound 83, N-(3-chloro-4-{2-[3-(hydroxymethyl)phenyl]-1,3-thiazol-4-yl}phenyl)-1,1,1-trifluoromethanesulfonamide]",0
13,"O=S(=O)(Nc1ccc(-c2csc(-c3ccccc3CO)n2)c(Cl)c1)C(F)(F)F [Compound 84, N-(3-chloro-4-{2-[2-(hydroxymethyl)phenyl]-1,3-thiazol-4-yl}phenyl)-1,1,1-trifluoromethanesulfonamide]",18
14,"O=S(=O)(Nc1ccc(-c2csc(-c3ccc(C(F)(F)F)c(OCc4ccccc4)c3)n2)c(Cl)c1)C(F)(F)F [Compound 73, N-(4-{2-[3-(benzyloxy)-4-(trifluoromethyl)phenyl]-1,3-thiazol-4-yl}-3-chlorophenyl)-1,1,1-trifluoromethanesulfonamide]",99
15,"O=S(=O)(Nc1ccc(-c2csc(-c3ccnc4ccccc34)n2)c(Cl)c1)C(F)(F)F [Compound 94, N-[3-chloro-4-[2-(4-quinolyl)thiazol-4-yl]phenyl]-1,1,1-trifluoro-methanesulfonamide]",84
16,"Cc1cnccc1-c1nc(-c2ccc(NS(=O)(=O)C(F)(F)F)cc2Cl)cs1 [Compound 86, N-{3-chloro-4-[2-(3-methylpyridin-4-yl)-1,3-thiazol-4-yl]phenyl}-1,1,1-trifluoromethanesulfonamide]",27

# Same assay, conditions: Homo sapiens, HepG2, 72 h; 20 μM, 3 days, DMEM without FBS; read-out: Average Viability (% Inhibition, n = 3)
row,Compound,cytotoxicity at 20 µM [%]
1,"O=S(=O)(Nc1ccc(-c2csc(-c3ccnc(CCC(F)(F)F)c3)n2)c(Cl)c1)C(F)(F)F [Compound 64, N-(3-chloro-4-{2-[2-(3,3,3-trifluoropropyl)pyridin-4-yl]-1,3-thiazol-4-yl}phenyl)-1,1,1-trifluoromethanesulfonamide]",100
2,"COc1cc(-c2csc(-c3ccnc(CC(C)C)c3)n2)ccc1NS(=O)(=O)C(F)(F)F [Compound 57, 1,1,1-trifluoro-N-(2-methoxy-4-{2-[2-(2-methylpropyl)pyridin-4-yl]-1,3-thiazol-4-yl}phenyl) methanesulfonamide]",56.4
3,"CCCc1cc(-c2nc(-c3ccc(NS(=O)(=O)C(F)(F)F)cc3Cl)cs2)ccn1 [Compound 4, N-(3-chloro-4-(2-(2-propylpyridin-4-yl)thiazol-4-yl)phenyl)-1,1,1-trifluoromethanesulfonamide]",94.4
4,"O=C(c1ccc(-c2nc(-c3ccc(NS(=O)(=O)C(F)(F)F)cc3Cl)cs2)cc1)N1CCCCC1 [Compound 67, N-(3-chloro-4-{2-[4-(piperidine-1-carbonyl)phenyl]-1,3-thiazol-4-yl}phenyl)-1,1,1-trifluoromethanesulfonamide]",20
5,"COc1cc(-c2csc(-c3ccnc(C(C)(C)C)c3)n2)ccc1NS(=O)(=O)C(F)(F)F [Compound 59, N-(4-(2-(2-tert-butylpyridin-4-yl)thiazol-4-yl)-2-methoxyphenyl)-1,1,1-trifluoromethanesulfonamide]",99.8
6,"Nc1cc(-c2nc(-c3ccc(NS(=O)(=O)C(F)(F)F)cc3Cl)cs2)ccn1 [Compound 61, N-{4-[2-(2-aminopyridin-4-yl)-1,3-thiazol-4-yl]-3-chlorophenyl}-1,1,1-trifluoromethanesulfonamide]",43
7,"O=S(=O)(Nc1ccc(-c2csc(-c3ccnc(NS(=O)(=O)C(F)(F)F)c3)n2)c(Cl)c1)C(F)(F)F [Compound 66, N-{3-chloro-4-[2-(2-trifluoromethanesulfonamidopyridin-4-yl)-1,3-thiazol-4-yl]phenyl}-1,1,1-trifluoromethanesulfonamide]",11
8,"CCCc1cc(-c2nc(-c3ccc(NS(=O)(=O)C(F)(F)F)cc3)cs2)ccn1 [Compound 1, 1,1,1-trifluoro-N-(4-(2-(2-propylpyridin-4-yl)thiazol-4-yl)phenyl)methanesulfonamide]",92.1
9,"CCCc1cc(-c2nc(-c3ccc(NS(=O)(=O)C(F)(F)F)c(OC)c3)cs2)ccn1 [Compound 58, 1,1,1-trifluoro-N-{2-methoxy-4-[2-(2-propylpyridin-4-yl)-1,3-thiazol-4-yl]phenyl}methanesulfonamide]",67.9
